The values below are quoted from earlier work in patent US20170348252A1, “Preparation and Use of Ketamine Derivatives and Ketamine Modifiers in the Treatment of Pain” (priority 2016, published 2017).

For this data set the following is noted: relative to thiopental; from Anirudda Pai et al. 2007.

`CNC1(c2ccccc2Cl)CCCCC1=O` (racemic) [Ketamine, 2-(2-chlorophenyl)-2-methylamino cyclohexanone]: the lipid solubility is 5-10 times that of thiopental.
